In US3956312A, “Indazole-3-carboxylic acid hydrazides and a process for the preparation thereof” (Egyt Gyogyszervegyeszeti Gyar, priority 1973, dated 1976):
Where a name gives a salt, the structure may show the parent alone. Read-outs that look alike come from different tables or passages of the source.

Tests used:
[1] = test system: small intestines; assay: spasmolytic effect in vivo, carbon suspension method of Stickney; conditions: Mus musculus, ip; white mice, intraperitoneal, Litchfield-Wilcoxon
Description: (§1) The spasmolytic effect was tested under in vivo conditions on white mice, by the carbon suspension method of Stickney. The active agents were administered intraperitoneally, and the total length of the small intestines as well as the length of the intestines filled with carbon were measured. […] The ED50 values were calculated according to the LitchfieldWilcoxon method from the thus-transformed values. In order to evaluate the safety margin of the active agents, the acute LD50 values were also determined on white mice in intraperitoneal administration. The observation periods in the toxicity tests were 48 hours, and the calculation was performed according to the LitchfieldWilcoxon method, also taking into consideration the perished animals.

[2] = as above; conditions: mouse, in vivo, ip; Table 1, spasmolytic effect, white mice, intraperitoneal; read-out: Therapeutical index LD50/ED50
Description: as §1

[3] = acute toxicity (LD50), intraperitoneal, 48 hours observation; conditions: mouse, in vivo, ip, read-out: Toxicity LD5
Description: as §1

[4] = test system: gastric acid secretion; assay: inhibition of gastric acid secretion, Shay's method; assay type: in vivo, Wistar rats; conditions: 5 hours
Description: The animals were operated according to Shay's method, and the substance to be tested was administered intraperitoneally. After 5 hours the animals were sacrified, and the volume of gastric juice, the amount of free hydrochloric acid, and the total acidity were determined.

[5] = test system: gastric acid secretion; assay: as above; assay type: in vivo, Wistar rats; conditions: 5 hours; remark: listed apart in the source
[6] = antidepressant activity, inhibition of tetrabenazine ptosis; assay type: in vivo, mice; conditions: mouse, in vivo; Table 4, antidepressant activity, mice, oral; read-out: Therapeutical index
Description: (§2) The antidepressant activity was examined on mice, after oral administration. Tetrabenazine was administered to the animals in a dosage provoking maximum ptosis, and the inhibiting activity of the tested compounds was measured.

[7] = test system: tetrabenazine ptosis; assay: as above; assay type: in vivo, mice; conditions: for ED50: Mus musculus, mice, oral, tetrabenazine ptosis
Description: as §2

[8] = test system: Reserpine-ulcer; assay: antiulcer activity, Reserpine-ulcer; assay type: in vivo, rats; conditions: related to the controls averages
Description: (§3) The antiulcer activity of 5,6-dimethoxyindazole-3-carboxylic acid-benzylhydrazide was determined on rats.

[9] = toxicity on mice p.o. (Table 2); conditions: mouse, in vivo, po
[10] = test system: Shay ulcer; assay: antiulcer activity, Shay ulcer; assay type: in vivo, rats; conditions: related to the controls averages
Description: as §3
**Shay ulcer (Shay, H., Komarov, S.A., Fels, S.S., Meranze, D.,
Gruenstein, M., Siplet, H.: Gastroenterology 5, 45 /1945/)

[11] = toxicity LD50 listed with the antidepressant activity (Table 4); conditions: mouse, in vivo
[12] = white mice, intraperitoneal, 48 hours observation

Q: What does the source list for `COc1cc2[nH]nc(C(=O)NNC(C)C)c2cc1OC` [Compound 7]?
A: ED50 [1]: 36 mg/kg; selectivity ratio [2]: 20; LD50 at 48 h [3, 12]: 720 mg/kg; Percentage inhibition of free HCl ([4]; 100 mg./kg. intraperitoneal): 85%; Percentage inhibition of gastric juice ([4]; 100 mg./kg. intraperitoneal): 80%; Percentage inhibition of total acidity ([4]; 100 mg./kg. intraperitoneal): 67%

Q: For `CCCN(CCC)C(=O)C(CCC(=O)O)NC(=O)c1ccccc1` (centres unmarked) [Xylamide, reference compound], which “Percentage inhibition of free HCl” value ([5]; 500 mg./kg. intraperitoneal) is on record?
A: 89%

Q: And the “Percentage inhibition of gastric juice” value ([5]; 500 mg./kg. intraperitoneal)?
A: 81%

Q: What about the “Percentage inhibition of total acidity” value ([5]; 500 mg./kg. intraperitoneal) of the same compound?
A: 80%

Q: For `COc1cc2[nH]nc(C(=O)NNC3CCCCCC3)c2cc1OC` [Compound 28, 5,6-dimethoxyindazole-3-carboxylic acid-cycloheptylhydrazide], which ED50 [1] is on record?
A: 280 mg/kg

Q: And the selectivity ratio [2]?
A: 4.3

Q: What about the “Percentage inhibition of gastric juice” value ([5]; 50 mg./kg. intraperitoneal) of the same compound?
A: 46%

Q: What about the “Percentage inhibition of total acidity” value ([5]; 50 mg./kg. intraperitoneal) of the same compound?
A: 38%

Q: And the LD50 at 48 h [3, 12]?
A: 1200 mg/kg

Q: And the “Percentage inhibition of free HCl” value ([4]; 50 mg./kg. intraperitoneal)?
A: 47%

Q: What about the “Percentage inhibition of free HCl” value ([4]; 100 mg./kg. intraperitoneal) of the same compound?
A: 63%

Q: What about the “Percentage inhibition of gastric juice” value ([4]; 100 mg./kg. intraperitoneal) of the same compound?
A: 47%

Q: And the “Percentage inhibition of total acidity” value ([4]; 100 mg./kg. intraperitoneal)?
A: 36%

Q: Which selectivity ratio [6] does the source give for `COc1cc2[nH]nc(C(=O)NNCc3ccccc3)c2cc1OC` [Compound 30, 5,6-dimethoxyindazole-3-carboxylic acid-benzylhydrazide] here?
A: 14.3

Q: What about the ED50 [7] of the same compound?
A: 140 mg/kg

Q: And the “Percentage inhibition according to the occurrence of ulcer” value ([8]; 10 mg./kg.)?
A: 0%

Q: What about the “Percentage inhibition according to the ulcer index” value ([8]; 10 mg./kg.) of the same compound?
A: 14%

Q: What about the “Percentage inhibition according to ulcer diameters 2-5 mm.” value ([8]; 10 mg./kg.) of the same compound?
A: 14%

Q: What about the “Percentage inhibition according to ulcer diameters 5-10 mm.” value ([8]; 10 mg./kg.) of the same compound?
A: 0%

Q: What about the “Percentage inhibition according to ulcer diameters <2 mm.” value ([8]; 10 mg./kg.) of the same compound?
A: 22%

Q: And the “Percentage inhibition according to ulcer diameters >10 mm.” value ([8]; 10 mg./kg.)?
A: 0%

Q: And the “Percentage inhibition according to the occurrence of ulcer” value ([8]; 25 mg./kg.)?
A: 70%

Q: And the “Percentage inhibition according to the ulcer index” value ([8]; 25 mg./kg.)?
A: 81%

Q: And the “Percentage inhibition according to ulcer diameters 2-5 mm.” value ([8]; 25 mg./kg.)?
A: 100%

Q: And the “Percentage inhibition according to ulcer diameters 5-10 mm.” value ([8]; 25 mg./kg.)?
A: 100%

Q: What about the “Percentage inhibition according to ulcer diameters <2 mm.” value ([8]; 25 mg./kg.) of the same compound?
A: 93%

Q: And the “Percentage inhibition according to ulcer diameters >10 mm.” value ([8]; 25 mg./kg.)?
A: 100%

Q: And the “Percentage inhibition according to the occurrence of ulcer” value ([8]; 50 mg./kg.)?
A: 90%

Q: And the “Percentage inhibition according to the ulcer index” value ([8]; 50 mg./kg.)?
A: 97%

Q: And the “Percentage inhibition according to ulcer diameters 2-5 mm.” value ([8]; 50 mg./kg.)?
A: 100%

Q: What about the “Percentage inhibition according to ulcer diameters 5-10 mm.” value ([8]; 50 mg./kg.) of the same compound?
A: 100%

Q: And the “Percentage inhibition according to ulcer diameters <2 mm.” value ([8]; 50 mg./kg.)?
A: 98%

Q: What about the “Percentage inhibition according to ulcer diameters >10 mm.” value ([8]; 50 mg./kg.) of the same compound?
A: 100%

Q: And the LD50 [9]?
A: 2000 mg/kg

Q: What about the “Percentage inhibition of gastric juice” value ([5]; 25 mg./kg. i.p.) of the same compound?
A: 13%

Q: What about the “Percentage inhibition of free HCl” value ([5]; 50 mg./kg. p.o.) of the same compound?
A: 50%

Q: And the “Percentage inhibition of gastric juice” value ([5]; 50 mg./kg. p.o.)?
A: 36%

Q: And the “Percentage inhibition of total acidity” value ([5]; 50 mg./kg. p.o.)?
A: 39%

Q: What about the “Percentage inhibition of free HCl” value ([5]; 100 mg./kg. p.o.) of the same compound?
A: 76%

Q: And the “Percentage inhibition of gastric juice” value ([5]; 100 mg./kg. p.o.)?
A: 48%

Q: And the “Percentage inhibition of total acidity” value ([5]; 100 mg./kg. p.o.)?
A: 63%

Q: What about the “Percentage inhibition of free HCl” value ([5]; 200 mg./kg. i.p.) of the same compound?
A: 72%

Q: And the “Percentage inhibition of gastric juice” value ([5]; 200 mg./kg. i.p.)?
A: 63%

Q: And the “Percentage inhibition of total acidity” value ([5]; 200 mg./kg. i.p.)?
A: 64%

Q: And the “Percentage inhibition according to the occurrence of ulcer” value ([10]; 100 mg./kg.)?
A: 12%

Q: And the “Percentage inhibition according to the ulcer index” value ([10]; 100 mg./kg.)?
A: 33%

Q: What about the “Percentage inhibition according to ulcer diameters 2-5 mm.” value ([10]; 100 mg./kg.) of the same compound?
A: 42%

Q: And the “Percentage inhibition according to ulcer diameters 5-10 mm.” value ([10]; 100 mg./kg.)?
A: 71%

Q: What about the “Percentage inhibition according to ulcer diameters <2 mm.” value ([10]; 100 mg./kg.) of the same compound?
A: 0%

Q: What about the “Percentage inhibition according to ulcer diameters >10 mm.” value ([10]; 100 mg./kg.) of the same compound?
A: 62%

Q: What about the “Percentage inhibition according to the occurrence of ulcer” value ([10]; 200 mg./kg.) of the same compound?
A: 22%

Q: What about the “Percentage inhibition according to the ulcer index” value ([10]; 200 mg./kg.) of the same compound?
A: 53%

Q: What about the “Percentage inhibition according to ulcer diameters 2-5 mm.” value ([10]; 200 mg./kg.) of the same compound?
A: 85%

Q: What about the “Percentage inhibition according to ulcer diameters 5-10 mm.” value ([10]; 200 mg./kg.) of the same compound?
A: 67%

Q: And the “Percentage inhibition according to ulcer diameters <2 mm.” value ([10]; 200 mg./kg.)?
A: 86%

Q: And the “Percentage inhibition according to ulcer diameters >10 mm.” value ([10]; 200 mg./kg.)?
A: 100%

Q: And the “Percentage inhibition of free HCl” value ([4]; 25 mg./kg. i.p.)?
A: 33%

Q: What about the “Percentage inhibition of total acidity” value ([4]; 25 mg./kg. i.p.) of the same compound?
A: 20%

Q: What about the “Percentage inhibition of free HCl” value ([4]; 100 mg./kg. intraperitoneal) of the same compound?
A: 74%

Q: What about the “Percentage inhibition of gastric juice” value ([4]; 100 mg./kg. intraperitoneal) of the same compound?
A: 48%

Q: And the “Percentage inhibition of total acidity” value ([4]; 100 mg./kg. intraperitoneal)?
A: 56%

Q: What about the LD50 ([11]; Table 4) of the same compound?
A: 2000 mg/kg

Q: With `CN(C)CCC=C1c2ccccc2CCc2ccccc21` [amitryptiline, 5-(3-dimethylamino-propylidene)-10,11-dihydro-5H-dibenzo(a,d)cycloheptan hydrochloride, reference compound] as the compound, how does the selectivity ratio [6] read?
A: 17.3

Q: And the ED50 [7]?
A: 13 mg/kg

Q: And the LD50 ([11]; Table 4)?
A: 225 mg/kg

Q: Which results are given for `COc1ccc(CC(C)NNC(=O)c2n[nH]c3cc(OC)c(OC)cc23)cc1OC` (centres unmarked) [Compound 37, 5,6-dimethoxyindazole-3-carboxylic acid-2'-(3'-/3",4"-dimethoxyphenyl/)-propylhydrazide]?
A: ED50 [1]: 8.7 mg/kg; selectivity ratio [2]: 310; LD50 at 48 h [3, 12]: 2700 mg/kg

Q: Which selectivity ratio [6] does the source give for `COc1cc2[nH]nc(C(=O)NNCc3ccccc3O)c2cc1OC` [Compound 32, 5,6-dimethoxyindazole-3-carboxylic acid-2'-hydroxybenzylhydrazide] here?
A: 136

Q: What about the ED50 [7] of the same compound?
A: 22 mg/kg

Q: And the therapeutical width ([7]; compared with amitryptiline)?
A: significantly exceeds that of the well known agent, amitryptiline

Q: What about the ED50 [1] of the same compound?
A: 25 mg/kg

Q: And the selectivity ratio [2]?
A: 120

Q: And the LD50 at 48 h [3]?
A: > 3000 mg/kg

Q: And the LD50 [11]?
A: > 3000 mg/kg

Q: For `COc1ccc(Cc2nccc3cc(OC)c(OC)cc23)cc1OC` [papaverine, reference compound], which ED50 [1] is on record?
A: 46 mg/kg

Q: And the selectivity ratio [2]?
A: 2.9

Q: What about the LD50 at 48 h [3, 12] of the same compound?
A: 132 mg/kg

Q: With `COc1cc2[nH]nc(C(=O)NNC(C)c3ccc([N+](=O)[O-])cc3)c2cc1OC` (centres unmarked) [Compound 35, 5,6-dimethoxyindazole-3-carboxylic acid-1'-(4"-nitrophenyl)-ethylhydrazide] as the compound, how does the selectivity ratio [6] read?
A: 17.9

Q: And the ED50 [7]?
A: 280 mg/kg

Q: What about the ED50 [1] of the same compound?
A: 2.5 mg/kg

Q: And the selectivity ratio [2]?
A: 2000

Q: And the LD50 at 48 h [3]?
A: 5000 mg/kg

Q: And the LD50 [11]?
A: > 5000 mg/kg

Q: With `CCN(CC)CCOC(=O)C(c1ccccc1)c1ccccc1.Cl` [Adiphenine, 2-diethylaminoethyl-diphenylacetate hydrochloride, reference compound] as the compound, how does the “Percentage inhibition of free HCl” value ([4]; 100 mg./kg. intraperitoneal) read?
A: 0%

Q: What about the “Percentage inhibition of gastric juice” value ([4]; 100 mg./kg. intraperitoneal) of the same compound?
A: 36%

Q: And the “Percentage inhibition of total acidity” value ([4]; 100 mg./kg. intraperitoneal)?
A: 0%
